Results from EP2168965A1, “Substituted imidazopyridine, imidazopyrazine, imidazopyridazine and imidazopyrimidine derivatives as melanocortin-4 receptor antagonists” (Santhera Pharmaceuticals (Schweiz) AG, priority 2008, dated 2010).
pIC50: −log10 of the molar value. Like-named read-outs stand apart in the source and are kept apart here.

How the values were obtained:
hMC-4R [1] = molecular target: T1, hMC-4R (Homo sapiens, UniProt P32245); test: Membrane binding assay: competition with fluorescence labeled NDP-alpha-MSH, fluorescence polarization
T1 construct: expressed in transfected cells; host or cells: HEK293 cells (membrane preparations)
T1 sequence (P32245 whole entry): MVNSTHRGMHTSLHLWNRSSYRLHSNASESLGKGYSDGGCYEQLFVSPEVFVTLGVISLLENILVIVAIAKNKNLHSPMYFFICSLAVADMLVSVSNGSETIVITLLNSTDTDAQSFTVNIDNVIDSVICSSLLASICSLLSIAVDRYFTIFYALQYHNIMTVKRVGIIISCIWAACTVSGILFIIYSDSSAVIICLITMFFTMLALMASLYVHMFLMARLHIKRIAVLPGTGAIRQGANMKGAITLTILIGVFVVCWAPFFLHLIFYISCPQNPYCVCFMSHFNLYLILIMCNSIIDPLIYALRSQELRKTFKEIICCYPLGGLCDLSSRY
Protocol: A membrane binding assay is used to identify competitive inhibitors of fluorescence labeled NDP-alpha-MSH binding to HEK293 cell membrane preparations expressing human melanocortin receptors.
The test compound or unlabeled NDP-alpha-MSH is dispensed at varying concentrations to a 384 well microtiter plate. Fluorescence labeled NDP-alpha-MSH is dispensed at a single concentration, followed by addition of membrane preparations. The plate is incubated for 5 h at room temperature.
The degree of fluorescence polarization is determined with a fluorescence polarization microplate reader.

hMC-4R [2] = molecular target: T1, hMC-4R; test: Functional assay: membrane based cAMP fluorescence polarization assay for agonistic activity; format: biochemical; conditions: read-out: % activation functional assay
[3] = HEK293 cell membrane preparations expressing human melanocortin receptors, 5 h at room temperature, read-out: hMC-4R binding assay IC50

| SMILES | pIC50 (hMC-4R [1]) | Emax (hMC-4R [2]) [%] | pIC50 (hMC-4R [1]; [3]) |
| --- | --- | --- | --- |
| CCOC(=O)c1nc2ccc(C(=O)N(CCC(C)C)CCC(C)C)cn2c1C#CCN1CCCC1 [Example 1] | 6.00 to 7.00 | 0 |  |
| CC(C)CCN(CCC(C)C)C(=O)c1ccc2ncc(C#CCN3CCCC3)n2c1 [Example 2] |  | 0 | 6.00 to 7.00 |
| CC(C)CCN(CCC(C)C)C(=O)c1ccc2nc(-c3ccccc3)c(C#CCN3CCCC3)n2c1 [Example 3] |  | 0 | < 6.00 |
| CC(C)CCN(CCC(C)C)C(=O)c1ccc2nc(C#Cc3ccccc3)c(C#CCN3CCCC3)n2c1 [Example 4] |  | 5 | 6.00 to 7.00 |
| CC(C)CCN(CCC(C)C)C(=O)c1ccc2nc(-c3cnco3)c(C#CCN3CCCC3)n2c1 [Example 5] |  | 0 | > 7.00 |
| CC(C)CCN(CCC(C)C)C(=O)c1ccc2nc(C#N)c(C#CCN3CCCC3)n2c1 [Example 6] | < 6.00 | 6 |  |
| CC(C)CCN(CCC(C)C)C(=O)c1ccc2nc(-c3ccoc3)c(C#CCN3CCCC3)n2c1 [Example 7] |  | 3 | 6.00 to 7.00 |
| CC(C)CCN(CCC(C)C)C(=O)c1ccc2nc(-c3ccco3)c(C#CCN3CCCC3)n2c1 [Example 8] |  | 5 | 6.00 to 7.00 |
| CC(C)CCN(CCC(C)C)C(=O)c1ccc2nc(Nc3ncccn3)c(C#CCN3CCCC3)n2c1 [Example 9] |  | -12 | 6.00 to 7.00 |
| CC(C)CCN(CCC(C)C)C(=O)c1ccc2nc(N3CCOCC3)c(C#CCN3CCCC3)n2c1 [Example 10] |  | 0 | 6.00 to 7.00 |
| CC(C)CCN(CCC(C)C)C(=O)c1ccc2nc(Nc3ccccn3)c(C#CCN3CCCC3)n2c1 [Example 11] |  | -7 | > 7.00 |
| COc1cccc(Nc2nc3ccc(C(=O)N(CCC(C)C)CCC(C)C)cn3c2C#CCN2CCCC2)c1 [Example 12] |  | -3 | > 7.00 |
| CC(C)CCN(CCC(C)C)C(=O)c1ccc2nc(N(C)c3ccccn3)c(C#CCN3CCCC3)n2c1 [Example 13] |  | -4 | 6.00 to 7.00 |
| COc1cccc(N(C)c2nc3ccc(C(=O)N(CCC(C)C)CCC(C)C)cn3c2C#CCN2CCCC2)c1 [Example 14] |  | 0 | 6.00 to 7.00 |
| CC(C)CCN(CCC(C)C)C(=O)c1ccc2nc(-c3cnn(CC4OCCO4)c3)c(C#CCN3CCCC3)n2c1 [Example 15] |  | -4 | > 7.00 |
| CC(C)CCN(CCC(C)C)C(=O)c1ccc2nc(C3=CCN(C(=O)OC(C)(C)C)CC3)c(C#CCN3CCCC3)n2c1 [Example 16] |  | -11 | < 6.00 |
| CC(C)CCN(CCC(C)C)C(=O)c1ccc2nc(-c3cn[nH]c3)c(C#CCN3CCCC3)n2c1 [Example 17] |  | -6 | > 7.00 |
| COc1cc(Nc2nc3ccc(C(=O)N(CCC(C)C)CCC(C)C)cn3c2C#CCN2CCCC2)ccc1F [Example 18] |  | -5 | > 7.00 |

| SMILES | pIC50 (hMC-4R [1]) | Emax (hMC-4R [2]) [%] | pIC50 (hMC-4R [1]; [3]) |
| --- | --- | --- | --- |
| COc1cc(Nc2nc3ccc(C(=O)N(CCC(C)C)CCC(C)C)cn3c2C#CCN2CCCC2)ccn1 [Example 19] |  | -13 | > 7.00 |
| COc1ccc(Nc2nc3ccc(C(=O)N(CCC(C)C)CCC(C)C)cn3c2C#CCN2CCCC2)cn1 [Example 20] |  | -16 | > 7.00 |
| CC(C)CCN(CCC(C)C)C(=O)c1ccc2nc(-c3ccc4nccn4c3)c(C#CCN3CCCC3)n2c1 [Example 21] |  | -12 | > 7.00 |
| CC(C)CCN(CCC(C)C)C(=O)c1ccc2nc(-c3ccc(F)c(F)c3)c(C#CCN3CCCC3)n2c1 [Example 22] |  | 0 | 6.00 to 7.00 |
| COc1ncc(-c2nc3ccc(C(=O)N(CCC(C)C)CCC(C)C)cn3c2C#CCN2CCCC2)cc1F [Example 23] |  | -9 | 6.00 to 7.00 |
| COc1cc(-c2nc3ccc(C(=O)N(CCC(C)C)CCC(C)C)cn3c2C#CCN2CCCC2)ccc1F [Example 24] |  | -2 | 6.00 to 7.00 |
| COc1cc(F)cc(-c2nc3ccc(C(=O)N(CCC(C)C)CCC(C)C)cn3c2C#CCN2CCCC2)c1 [Example 25] |  | -2 | < 6.00 |
| CC(C)CCN(CCC(C)C)C(=O)c1ccc2nc(-c3ccc(C#N)c(F)c3)c(C#CCN3CCCC3)n2c1 [Example 26] |  | -4 | 6.00 to 7.00 |
| CC(C)CCN(CCC(C)C)C(=O)c1ccc2nc(-c3cc(F)cc(F)c3)c(C#CCN3CCCC3)n2c1 [Example 27] |  | -3 | < 6.00 |
| COc1ccc(Nc2nc3ccc(C(=O)N(CCC(C)C)CCC(C)C)cn3c2C#CCN2CCCC2)cc1F [Example 28] |  | -12 | > 7.00 |
| CC(C)CCN(CCC(C)C)C(=O)c1ccc2nc(-c3cnc4c(c3)OCCN4C)c(C#CCN3CCCC3)n2c1 [Example 29] |  | -5 | > 7.00 |
| Cc1n[nH]cc1-c1nc2ccc(C(=O)N(CCC(C)C)CCC(C)C)cn2c1C#CCN1CCCC1 [Example 30] |  | 4 | 6.00 to 7.00 |
| Cc1cc(-c2nc3ccc(C(=O)N(CCC(C)C)CCC(C)C)cn3c2C#CCN2CCCC2)n(C)n1 [Example 31] |  | 3 | 6.00 to 7.00 |
| COc1cccc(-c2nc3ccc(C(=O)N(CCC(C)C)CCC(C)C)cn3c2C#CCN2CCCC2)n1 [Example 32] |  | -4 | 6.00 to 7.00 |
| CC(C)CCN(CCC(C)C)C(=O)c1ccc2nc(-c3ccc(=O)n(C)c3)c(C#CCN3CCCC3)n2c1 [Example 33] |  |  | > 7.00 |
| COc1ncc(-c2nc3ccc(C(=O)N(CCC(C)C)CCC(C)C)cn3c2C#CCN2CCCC2)cn1 [Example 34] |  |  | > 7.00 |
| CC(C)CCN(CCC(C)C)C(=O)c1ccc2nc(-c3ccc4nccnc4c3)c(C#CCN3CCCC3)n2c1 [Example 35] |  |  | > 7.00 |
| CC(C)CCN(CCC(C)C)C(=O)c1ccc2nc(-c3c[nH]nc3C(F)(F)F)c(C#CCN3CCCC3)n2c1 [Example 36] |  |  | 6.00 to 7.00 |
